In BindingDB's records for PubMed 34225181 (University of Electronic Science and Technology of China, 2021):

Experiment: Inhibition of L1 (unknown origin) using cefazolin as substrate incubated for 5 mins by Agilent UV8453 spectrometric analysis

O=C(NNC(=S)S)c1ccccc1O showed an IC50 of 380 nM.
